Here are results for 18 compounds from ChEMBL document CHEMBL1155471, “Discovery of potent, balanced and orally active dual NK1/NK3 receptor ligands” (Bioorg Med Chem Lett, 2010).

The structures appear in SMILES notation.

A word on the Ki: it is a dissociation constant, usually derived from enzyme kinetics or from competition with a known ligand. The inhibition in vivo is the drop in the measured response relative to a control, in per cent. Read a low inhibition in vivo as a weak effect.

The target in assay [1] is T1, Neuromedin-K receptor (Homo sapiens, UniProt P29371).
T1 sequence (P29371 whole entry): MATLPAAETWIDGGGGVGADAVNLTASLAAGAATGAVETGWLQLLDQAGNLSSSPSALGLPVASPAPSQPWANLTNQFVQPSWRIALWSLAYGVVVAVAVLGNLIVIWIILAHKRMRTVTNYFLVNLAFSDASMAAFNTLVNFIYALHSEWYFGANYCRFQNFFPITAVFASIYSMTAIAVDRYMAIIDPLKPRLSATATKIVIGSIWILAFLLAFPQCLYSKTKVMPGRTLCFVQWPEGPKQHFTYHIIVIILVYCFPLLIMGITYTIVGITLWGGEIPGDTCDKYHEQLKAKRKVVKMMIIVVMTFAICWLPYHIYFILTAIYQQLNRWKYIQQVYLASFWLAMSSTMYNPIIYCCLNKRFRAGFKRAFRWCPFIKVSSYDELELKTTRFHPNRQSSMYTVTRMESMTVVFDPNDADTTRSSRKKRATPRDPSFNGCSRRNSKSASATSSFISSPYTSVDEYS
Put plainly: Displacement of [3H]SR142801 from human NK3 receptor expressed in HEK293-EBNA cells. It counts as cell-based. In general terms: Displacement assays read how much labelled ligand stays bound in the presence of the test substance.

The target of assay [2] is Substance-P receptor (Homo sapiens, UniProt P25103). Put plainly: Displacement of [3H]substance P from human NK1 receptor expressed in CHO cells. It counts as cell-based.
Chain of Substance-P receptor (P25103 whole entry): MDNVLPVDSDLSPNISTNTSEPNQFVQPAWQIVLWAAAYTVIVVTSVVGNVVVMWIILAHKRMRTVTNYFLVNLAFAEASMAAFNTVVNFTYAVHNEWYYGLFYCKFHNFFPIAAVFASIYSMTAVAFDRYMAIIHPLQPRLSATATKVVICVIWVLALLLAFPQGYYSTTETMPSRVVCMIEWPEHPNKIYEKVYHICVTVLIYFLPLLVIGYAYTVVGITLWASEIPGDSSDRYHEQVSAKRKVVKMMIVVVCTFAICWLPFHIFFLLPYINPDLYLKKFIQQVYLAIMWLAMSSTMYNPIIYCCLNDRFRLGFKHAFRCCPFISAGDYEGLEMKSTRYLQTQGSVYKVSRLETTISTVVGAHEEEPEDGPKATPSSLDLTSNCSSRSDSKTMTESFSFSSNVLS
Assay [3] relates to Meriones unguiculatus. Kind of assay: Inhibition of GR-73632-induced foot tapping behavior in po dosed Mongolian gerbil administered 2 hrs before GR-73632 challenge. It counts as functional. Particulars: read-out: ID50 (the source's name).
The subject of assay [4] is Meriones unguiculatus. Kind of assay: Inhibition of GR-73632-induced foot tapping behavior in Mongolian gerbil at 10 mg/kg, po administered 2 hrs before GR-73632 challenge. It counts as functional.

With `CN(C(=O)C(C)(C)c1cc(C(F)(F)F)cc(C(F)(F)F)c1)c1cnc(N(CCO)CCO)cc1-c1ccccc1Cl`, the Ki is 0.91 nM in assay [1] and 1.15 nM in assay [2].

Consider `CN(C(=O)C(C)(C)c1cc(C(F)(F)F)cc(C(F)(F)F)c1)c1cnc(N(CCO)CCCO)cc1-c1ccccc1Cl`, for which the inhibitory constant (Ki) is 0.95 nM in assay [1] and 1.38 nM in assay [2].

In the case of `CN(C(=O)C(C)(C)c1cc(C(F)(F)F)cc(C(F)(F)F)c1)c1cnc(NCCO)cc1-c1ccccc1Cl`, the ED50 in assay [3] came to 1 mg/kg. In assay [2], affinity was put at a Ki of 1.12 nM.

For `CN(C(=O)C(C)(C)c1cc(C(F)(F)F)cc(C(F)(F)F)c1)c1cnc(N2C[C@H](O)C[C@H]2CO)cc1-c1ccccc1Cl`, in assay [3], the ED50 turned out to be 1.1 mg/kg. The compound further displayed an inhibitory constant (Ki) in assay [1] of 1.12 nM.

Consider `CN(C(=O)C(C)(C)c1cc(C(F)(F)F)cc(C(F)(F)F)c1)c1cnc(N2CCCC[C@@H]2CO)cc1-c1ccccc1Cl`, for which the Ki in assay [1] stood at 29.7 nM; in assay [2] it was 2.27 nM.

For the compound `CN(C(=O)C(C)(C)c1cc(C(F)(F)F)cc(C(F)(F)F)c1)c1cnc(N2C[C@@H](O)C[C@H]2CO)cc1-c1ccccc1Cl`, the ED50 in assay [3] is 1.3 mg/kg.

For the compound `CN(C(=O)C(C)(C)c1cc(C(F)(F)F)cc(C(F)(F)F)c1)c1cnc(N2CCCC(O)C2)cc1-c1ccccc1Cl` (configuration not stated), the values for the inhibition constant (Ki) in assay [1] and in assay [2] were 15.1 nM and 1.72 nM, respectively.

As to `CN(C(=O)C(C)(C)c1cc(C(F)(F)F)cc(C(F)(F)F)c1)c1cnc(N2CCC[C@@H]2CO)cc1-c1ccccc1Cl`, the Ki in assay [1] was found to be 7.27 nM; in assay [2], 1.58 nM.

Regarding `COCCNc1cc(-c2ccccc2Cl)c(N(C)C(=O)C(C)(C)c2cc(C(F)(F)F)cc(C(F)(F)F)c2)cn1`, the Ki came to 93.3 nM in assay [1] and 3.05 nM in assay [2].

In the case of `CN(C(=O)C(C)(C)c1cc(C(F)(F)F)cc(C(F)(F)F)c1)c1cnc(N2CCCC[C@H]2CO)cc1-c1ccccc1Cl`, the Ki came to 7.72 nM in assay [1] and 11.1 nM in assay [2].

For the compound `COC[C@@H]1C[C@@H](OC)CN1c1cc(-c2ccccc2Cl)c(N(C)C(=O)C(C)(C)c2cc(C(F)(F)F)cc(C(F)(F)F)c2)cn1`, the Ki in assay [1] was 29.8 nM; in assay [2] it was 0.91 nM.

For `CN(CCO)c1cc(-c2ccccc2Cl)c(N(C)C(=O)C(C)(C)c2cc(C(F)(F)F)cc(C(F)(F)F)c2)cn1`, the Ki in assay [1] turned out to be 2.91 nM; in assay [2], 0.78 nM.

Regarding `CCN(CCO)c1cc(-c2ccccc2Cl)c(N(C)C(=O)C(C)(C)c2cc(C(F)(F)F)cc(C(F)(F)F)c2)cn1`, the Ki came to 12.2 nM in assay [1] and 3.37 nM in assay [2]. In addition, the inhibition in vivo at 10 mg/kg in assay [4] stood at 100%.

On to `CN(C(=O)C(C)(C)c1cc(C(F)(F)F)cc(C(F)(F)F)c1)c1cnc(N2CC[C@H](O)[C@H]2CO)cc1-c1ccccc1Cl`, for which the results for the Ki in assay [1] and in assay [2] were 0.91 nM and 1.58 nM, respectively.

Turning to `CN(C(=O)C(C)(C)c1cc(C(F)(F)F)cc(C(F)(F)F)c1)c1cnc(N2CCC[C@H]2CO)cc1-c1ccccc1Cl`, the Ki is 0.74 nM in assay [1] and 1 nM in assay [2].

Turning to `CN(C(=O)C(C)(C)c1cc(C(F)(F)F)cc(C(F)(F)F)c1)c1cnc(N2CC[C@H](O)C2)cc1-c1ccccc1Cl`, the Ki is 8.38 nM in assay [1] and 0.86 nM in assay [2].

Turning to `CCCN(CCO)c1cc(-c2ccccc2Cl)c(N(C)C(=O)C(C)(C)c2cc(C(F)(F)F)cc(C(F)(F)F)c2)cn1`, the Ki in assay [1] was 5.4 nM; in assay [2] it was 2.24 nM. In assay [4], this compound gave an inhibition in vivo at 10 mg/kg of 100%.

For `CN(C(=O)C(C)(C)c1cc(C(F)(F)F)cc(C(F)(F)F)c1)c1cnc(N2CC[C@@H](O)C2)cc1-c1ccccc1Cl`, the Ki in assay [1] was 6.87 nM; in assay [2], 2.62 nM.
